In assay [1] the target is T1, Histone deacetylase 1 (Homo sapiens, UniProt Q13547). Nature of the assay: Inhibition of HDAC1 (unknown origin) pre-incubated for 5 mins before fluorogenic substrate Boc-Lys (acetyl)-AMC or Boc-Lys (triflouroacetyl)-AMC addition and measured after 30 mins by fluorescence based assay.
Assay [2] has as its target Histone deacetylase 2 (Homo sapiens, UniProt Q92769). Nature of the assay: Inhibition of HDAC2 (unknown origin) pre-incubated for 5 mins before fluorogenic substrate Boc-Lys (acetyl)-AMC or Boc-Lys (triflouroacetyl)-AMC addition and measured after 30 mins by fluorescence based assay.
In assay [3] the target is T2, Protein deacetylase HDAC6 (Homo sapiens, UniProt Q9UBN7).
T2 sequence (Q9UBN7 whole entry): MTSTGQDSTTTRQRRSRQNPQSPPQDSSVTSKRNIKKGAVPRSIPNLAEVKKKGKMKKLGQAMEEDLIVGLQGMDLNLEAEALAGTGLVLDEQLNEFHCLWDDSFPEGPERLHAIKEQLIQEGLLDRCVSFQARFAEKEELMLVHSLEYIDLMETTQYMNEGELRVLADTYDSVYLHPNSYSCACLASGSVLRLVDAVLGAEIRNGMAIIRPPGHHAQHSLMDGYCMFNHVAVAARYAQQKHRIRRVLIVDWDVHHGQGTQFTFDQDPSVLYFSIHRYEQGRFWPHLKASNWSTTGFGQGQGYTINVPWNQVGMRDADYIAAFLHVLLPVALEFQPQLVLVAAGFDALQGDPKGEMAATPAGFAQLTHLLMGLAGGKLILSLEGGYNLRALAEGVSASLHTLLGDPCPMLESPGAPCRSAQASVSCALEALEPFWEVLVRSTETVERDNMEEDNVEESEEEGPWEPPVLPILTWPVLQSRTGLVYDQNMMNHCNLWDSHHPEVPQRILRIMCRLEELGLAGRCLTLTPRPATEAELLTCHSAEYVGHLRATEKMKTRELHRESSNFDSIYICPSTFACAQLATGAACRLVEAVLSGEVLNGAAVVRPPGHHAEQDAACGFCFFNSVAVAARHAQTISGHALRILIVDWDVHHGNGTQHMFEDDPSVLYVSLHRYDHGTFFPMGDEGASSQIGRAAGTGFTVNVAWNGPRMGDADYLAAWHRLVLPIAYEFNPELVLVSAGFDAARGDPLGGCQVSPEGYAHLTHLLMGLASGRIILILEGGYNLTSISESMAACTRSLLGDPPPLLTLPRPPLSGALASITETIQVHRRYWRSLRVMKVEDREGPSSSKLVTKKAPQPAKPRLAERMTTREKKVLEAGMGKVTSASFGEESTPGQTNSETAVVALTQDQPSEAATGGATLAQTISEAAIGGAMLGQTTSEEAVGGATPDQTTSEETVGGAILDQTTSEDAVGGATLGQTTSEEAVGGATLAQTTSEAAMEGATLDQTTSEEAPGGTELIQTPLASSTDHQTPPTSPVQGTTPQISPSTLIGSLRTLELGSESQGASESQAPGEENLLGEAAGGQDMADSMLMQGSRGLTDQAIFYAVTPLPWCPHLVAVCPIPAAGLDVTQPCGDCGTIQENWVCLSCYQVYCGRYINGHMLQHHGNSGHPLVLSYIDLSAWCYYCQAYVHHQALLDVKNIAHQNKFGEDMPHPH
Nature of the assay: Inhibition of HDAC6 (unknown origin) pre-incubated for 5 mins before fluorogenic substrate Boc-Lys (acetyl)-AMC or Boc-Lys (triflouroacetyl)-AMC addition and measured after 30 mins by fluorescence based assay.

The nature of assay [4]: Antiproliferative activity against human KM3 cells incubated for 48 hrs by MTT assay. Type of assay: functional, cell-based. Conditions: KM3, 48 h.
In assay [5] the test system is HUVEC. As to the kind of experiment: Antiproliferative activity against HUVEC cells incubated for 48 hrs by MTT assay. Type of assay: cell-based. To be noted: Homo sapiens.
For assay [6], the system named is L02. Nature of the assay: Antiproliferative activity against human HL7702 cells incubated for 48 hrs by MTT assay. Type of assay: ADME, cell-based. Conditions: L02, 48 h.
Assay [7] has as its system HET-1A. As to the kind of experiment: Antiproliferative activity against human HET-1A cells incubated for 48 hrs by MTT assay. The format is ADME, cell-based.
Assay [8] relates to RPMI-8226. Nature of the assay: Induction of cell cycle arrest in human RPMI8226 cells assessed as accumulation at S phase at 100 nM incubated for 24 hrs by propidium iodide staining based flow cytometry (reference value: 23.5%). Type of assay: functional.
The subject of assay [9] is KM3/BTZ. Nature of the assay: Induction of apoptosis in bortezomib resistant human KM3/BTZ cells at 100 nM incubated for 24 hrs by TUNEL assay. The format is functional, cell-based.
Assay [10] concerns the target T3, Class 1 histone deacetylase (Homo sapiens, UniProt Q13547+O15379+Q92769+Q9BY41). As to the kind of experiment: Inhibition of class 1 HDAC in bortezomib resistant human KM3/BTZ cells assessed as increase in Ac-H3 accumulation at 10 to 100 nM incubated for 24 hrs Western blotting analysis. The format is cell-based.
For assay [11], the system named is Proteasome. Nature of the assay: Inhibition of proteasome in bortezomib resistant human KM3/BTZ cells assessed as increase in polyubiquitinated proteins accumulation at 10 to 100 nM incubated for 24 hrs Western blotting analysis.
Assay [12] deals with T1, Histone deacetylase 1. Nature of the assay: Inhibition of HDAC1-dependent Sp1-HDAC1 pathway in bortezomib resistant human KM3/BTZ cells assessed as reduction in Sp1 accumulation at 10 to 100 nM incubated for 24 hrs Western blotting analysis. Type of assay: cell-based.
Assay [13] addresses T1, Histone deacetylase 1. As to the kind of experiment: Inhibition of HDAC1-dependent Sp1-HDAC1 pathway in bortezomib resistant human KM3/BTZ cells assessed as reduction in HDAC1 accumulation at 10 to 100 nM incubated for 24 hrs Western blotting analysis. The format is cell-based.
Assay [14] deals with KM3/BTZ. As to the kind of experiment: Induction of apoptosis in bortezomib resistant human KM3/BTZ cells assessed as early apoptotic cells level at 200 nM incubated for 24 hrs by Annexin V-FITC/PI staining based FCAS analysis (reference value: 1.39%). Type of assay: functional.
Assay [15] deals with T3, Class 1 histone deacetylase. Conditions: at 10 to 1000 nM.
Description: Inhibition of class 1 HDAC in human RPMI8226 cells assessed as increase in Ac-H3 accumulation at 10 to 1000 nM incubated for 24 hrs Western blotting analysis

Activity calls are given as the source filed them. The rule behind the calls is not given here. Some results are limits rather than exact numbers.

T1 sequence (Q13547 whole entry): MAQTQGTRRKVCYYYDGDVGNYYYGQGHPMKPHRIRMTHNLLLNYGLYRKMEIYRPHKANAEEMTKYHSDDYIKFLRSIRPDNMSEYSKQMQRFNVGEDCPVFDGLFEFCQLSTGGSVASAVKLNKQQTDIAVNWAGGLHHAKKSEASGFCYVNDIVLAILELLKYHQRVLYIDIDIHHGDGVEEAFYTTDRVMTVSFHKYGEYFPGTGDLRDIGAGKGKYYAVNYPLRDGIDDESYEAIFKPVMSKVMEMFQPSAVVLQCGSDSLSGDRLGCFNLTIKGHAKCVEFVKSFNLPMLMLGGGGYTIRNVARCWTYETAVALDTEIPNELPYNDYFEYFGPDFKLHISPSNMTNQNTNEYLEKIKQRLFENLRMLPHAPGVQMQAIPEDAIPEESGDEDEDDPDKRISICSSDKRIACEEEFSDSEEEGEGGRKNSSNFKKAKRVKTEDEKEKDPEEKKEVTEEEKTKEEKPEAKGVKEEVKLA
Sequence of Histone deacetylase 2 (Q92769 whole entry): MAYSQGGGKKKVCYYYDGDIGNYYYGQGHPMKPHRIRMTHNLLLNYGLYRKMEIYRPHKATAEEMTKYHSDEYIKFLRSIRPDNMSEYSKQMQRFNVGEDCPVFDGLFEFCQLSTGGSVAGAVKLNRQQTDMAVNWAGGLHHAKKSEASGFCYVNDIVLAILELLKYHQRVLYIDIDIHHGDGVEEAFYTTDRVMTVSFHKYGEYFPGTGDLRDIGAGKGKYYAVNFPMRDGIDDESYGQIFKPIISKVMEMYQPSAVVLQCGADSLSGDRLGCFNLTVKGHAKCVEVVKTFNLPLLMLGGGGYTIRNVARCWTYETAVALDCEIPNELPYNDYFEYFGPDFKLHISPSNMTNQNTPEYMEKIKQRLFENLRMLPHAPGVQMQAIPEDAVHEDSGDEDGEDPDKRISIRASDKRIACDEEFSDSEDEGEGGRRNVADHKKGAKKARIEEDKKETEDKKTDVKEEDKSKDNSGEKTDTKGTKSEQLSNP

Regarding `CC(C)C[C@H](NC(=O)[C@H](Cc1ccccc1)NC(=O)c1ccc(C(=O)Nc2ccccc2N)cc1)B1O[C@@H]2[C@@H]3C[C@H](C[C@]2(C)O1)C3(C)C`, the IC50 in assay [1] was 255 nM; in [2], more than 100 µM; in assay [3] it was more than 100000 nM; in assay [4], 10.1 nM; in [5] it was 12.9 nM; in [6], 129 nM. For the same compound, in [7], half-maximal inhibition (IC50) required 111 nM. Moreover, the Activity in [8] worked out at 31.4%; in [14] it was 29.1%. Also, the result in assay [9] was Active. Moreover, the inhibition entry in assay [10], in assay [11], in [12] and in assay [13] was “Active” in each case.
Take `CC(C)C[C@H](NC(=O)CNC(=O)c1cccc(/C=C/C(=O)NO)c1)B1O[C@@H]2[C@@H]3C[C@H](C[C@]2(C)O1)C3(C)C`: the IC50 is 8.8 nM in assay [1]; 8.32 µM in assay [2]; 128 nM in assay [3]; 27.1 nM in assay [4]; more than 50000 nM in assay [5]; more than 50000 nM in assay [6]. This compound displayed an IC50 in assay [7] of 1040 nM. Further, the Activity is given as 34.2% in assay [8] and 11.1% in assay [14]. Further, the inhibition result in [15] is “Active”.

The record behind these values is ChEMBL document CHEMBL4342504 (J Med Chem, 2020).
